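Grown in 96-well plates, cells were treated for 48 hours with each compound at five concentrations. Insufficient inhibition: endpoint recorded as highest concentration tested. At the TGI there is no net growth.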
What was measured:
Assay in all cases: NCI anticancer screen, dose series, 48 h
[1] = tested on: A549 NSCLC
[2] = tested on: HCC-2998 colon
[3] = tested on: SN12C renal
[4] = tested on: SNB-19 CNS
[5] = tested on: SW-620 colon
[6] = tested on: M14 melanoma
[7] = tested on: MALME-3M melanoma
[8] = tested on: U251 CNS
[9] = tested on: HT29 colon
[10] = tested on: 786-0 renal
[11] = tested on: T-47D breast
[12] = tested on: NCI-H522 lung
[13] = tested on: OVCAR-8 ovarian
[14] = tested on: OVCAR-5 ovarian
[15] = tested on: SR leukemia
[16] = tested on: KM12 colon
[17] = tested on: CAKI-1 renal
[18] = tested on: SF-268 CNS
[19] = tested on: IGROV1 ovarian
[20] = tested on: A498 renal
[21] = tested on: UACC-62 melanoma
[22] = tested on: SNB-75 CNS
[23] = tested on: HS 578T breast
[24] = tested on: EKVX NSCLC
[25] = tested on: HCT-15 colon
[26] = tested on: HL-60(TB) leukemia
[27] = tested on: TK-10 renal
[28] = tested on: UO-31 renal
[29] = tested on: NCI/ADR-RES ovarian
[30] = tested on: HOP-92 NSCLC
[31] = tested on: MCF7 breast
[32] = tested on: MOLT-4 leukemia
[33] = tested on: SK-MEL-2 melanoma
[34] = tested on: LOX IMVI melanoma
[35] = tested on: RXF 393 renal
[36] = tested on: SF-295 CNS
[37] = tested on: NCI-H226 lung
[38] = tested on: MDA-MB-231 breast
[39] = tested on: MDA-MB-435
[40] = tested on: COLO 205 colon
[41] = tested on: SK-MEL-5 melanoma
[42] = tested on: PC-3 prostate
[43] = tested on: NCI-H23 lung
[44] = tested on: HCT-116 colon
[45] = tested on: DU-145 prostate
[46] = tested on: UACC-257 melanoma
[47] = tested on: SF-539 CNS
[48] = tested on: HOP-62 NSCLC
[49] = tested on: CCRF-CEM leukemia
[50] = tested on: RPMI-8226 leukemia
[51] = tested on: SK-OV-3 ovarian
[52] = tested on: OVCAR-4 ovarian
[53] = tested on: MDA-N
[54] = tested on: K-562 leukemia
[55] = tested on: NCI-H460 lung
[56] = tested on: ACHN renal
[57] = tested on: SK-MEL-28 melanoma
[58] = tested on: BT-549 breast
[59] = tested on: OVCAR-3 ovarian
[60] = tested on: DMS 114 small cell lung
[61] = tested on: DMS 273 small cell lung
[62] = tested on: SNB-78 CNS
[63] = tested on: M19-MEL melanoma
[64] = tested on: LXFL 529 NSCLC
[65] = tested on: DLD-1 colon
[66] = tested on: HOP-18 NSCLC
[67] = tested on: KM20L2 colon

SMILES: O=C(Nc1ccc(Cl)cc1)c1cc(S(=O)(=O)NC2=NC(c3ccccc3)c3cc(Cl)ccc3N2)c(SSc2cc(Cl)c(C(=O)Nc3ccc(Cl)cc3)cc2S(=O)(=O)NC2=NC(c3ccccc3)c3cc(Cl)ccc3N2)cc1Cl (stereo not drawn)
- TGI [1]: > 100 µM
- TGI [2]: > 100 µM
- TGI [3]: > 100 µM
- TGI [4]: > 100 µM
- TGI [5]: > 100 µM
- TGI [6]: > 100 µM
- TGI [7]: > 100 µM
- TGI [8]: > 100 µM
- TGI [9]: > 100 µM
- TGI [10]: > 100 µM
- TGI [11]: > 100 µM
- TGI [12]: > 100 µM
- TGI [13]: > 100 µM
- TGI [14]: > 100 µM
- TGI [15]: 58.5 µM
- TGI [16]: > 100 µM
- TGI [17]: > 100 µM
- TGI [18]: > 100 µM
- TGI [19]: > 100 µM
- TGI [20]: > 100 µM
- TGI [21]: > 100 µM
- TGI [22]: > 100 µM
- TGI [23]: > 100 µM
- TGI [24]: > 100 µM
- TGI [25]: > 100 µM
- TGI [26]: > 42.6 µM
- TGI [27]: > 100 µM
- TGI [28]: > 100 µM
- TGI [29]: > 100 µM
- TGI [30]: > 100 µM
- TGI [31]: > 100 µM
- TGI [32]: > 61.6 µM
- TGI [33]: > 100 µM
- TGI [34]: > 100 µM
- TGI [35]: > 100 µM
- TGI [36]: > 100 µM
- TGI [37]: > 100 µM
- TGI [38]: > 100 µM
- TGI [39]: > 100 µM
- TGI [40]: > 100 µM
- TGI [41]: > 100 µM
- TGI [42]: > 100 µM
- TGI [43]: > 100 µM
- TGI [44]: > 100 µM
- TGI [45]: > 100 µM
- TGI [46]: > 100 µM
- TGI [47]: > 100 µM
- TGI [48]: > 100 µM
- TGI [49]: > 40.1 µM
- TGI [50]: > 100 µM
- TGI [51]: > 100 µM
- TGI [52]: > 100 µM
- TGI [53]: > 100 µM
- TGI [54]: > 100 µM
- TGI [55]: > 100 µM
- TGI [56]: > 100 µM
- TGI [57]: > 100 µM
- TGI [58]: > 100 µM
- TGI [59]: > 100 µM

SMILES: Cn1c2cc(Cl)ccc2c2ccc3c(c21)C(=O)C=CC3=O
- TGI [1]: > 100 µM
- TGI [2]: > 100 µM
- TGI [3]: 21.2 µM
- TGI [4]: > 100 µM
- TGI [5]: 17.9 µM
- TGI [6]: > 64 µM
- TGI [7]: 33.4 µM
- TGI [8]: > 100 µM
- TGI [9]: > 64.6 µM
- TGI [10]: > 55.9 µM
- TGI [11]: 55.6 µM
- TGI [12]: 22.9 µM
- TGI [13]: > 100 µM
- TGI [14]: > 100 µM
- TGI [15]: 26.1 µM
- TGI [16]: > 100 µM
- TGI [17]: 22.1 µM
- TGI [18]: > 82.6 µM
- TGI [19]: > 63.1 µM
- TGI [20]: > 100 µM
- TGI [21]: > 31.6 µM
- TGI [22]: > 100 µM
- TGI [23]: > 100 µM
- TGI [24]: > 100 µM
- TGI [25]: > 57.5 µM
- TGI [26]: 45.9 µM
- TGI [27]: 56.6 µM
- TGI [28]: > 100 µM
- TGI [29]: > 89.7 µM
- TGI [30]: 35.8 µM
- TGI [31]: 50.6 µM
- TGI [32]: 10.3 µM
- TGI [33]: > 100 µM
- TGI [34]: > 100 µM
- TGI [35]: 40 µM
- TGI [36]: > 100 µM
- TGI [37]: > 100 µM
- TGI [38]: > 68.6 µM
- TGI [39]: > 60.1 µM
- TGI [40]: 20.7 µM
- TGI [41]: > 100 µM
- TGI [42]: > 82 µM
- TGI [43]: 54.4 µM
- TGI [44]: > 53.7 µM
- TGI [45]: > 100 µM
- TGI [46]: > 77.3 µM
- TGI [47]: > 78.8 µM
- TGI [48]: > 100 µM
- TGI [49]: 31.4 µM
- TGI [50]: 23.7 µM
- TGI [51]: > 100 µM
- TGI [52]: 52.3 µM
- TGI [53]: 83.1 µM
- TGI [54]: 11.4 µM
- TGI [55]: > 100 µM
- TGI [56]: 40.9 µM
- TGI [57]: 63.5 µM
- TGI [58]: > 63.8 µM
- TGI [59]: 17.1 µM

SMILES: CN(C(=O)C1CC1)C1C2CN3CCC(O2)C13 (stereo not drawn)
- TGI [1]: > 100 µM
- TGI [2]: > 100 µM
- TGI [3]: > 100 µM
- TGI [4]: > 100 µM
- TGI [5]: > 100 µM
- TGI [6]: > 100 µM
- TGI [7]: > 100 µM
- TGI [8]: > 100 µM
- TGI [9]: > 100 µM
- TGI [10]: > 100 µM
- TGI [12]: > 100 µM
- TGI [14]: > 100 µM
- TGI [16]: > 100 µM
- TGI [17]: > 100 µM
- TGI [18]: > 100 µM
- TGI [19]: > 100 µM
- TGI [20]: > 100 µM
- TGI [60]: > 100 µM
- TGI [21]: > 100 µM
- TGI [22]: > 100 µM
- TGI [24]: > 100 µM
- TGI [25]: > 100 µM
- TGI [26]: > 100 µM
- TGI [27]: > 100 µM
- TGI [28]: > 100 µM
- TGI [61]: > 100 µM
- TGI [30]: > 100 µM
- TGI [32]: > 100 µM
- TGI [33]: > 100 µM
- TGI [34]: > 100 µM
- TGI [35]: > 100 µM
- TGI [36]: > 100 µM
- TGI [62]: > 100 µM
- TGI [37]: > 100 µM
- TGI [40]: > 100 µM
- TGI [41]: > 100 µM
- TGI [63]: > 100 µM
- TGI [43]: > 100 µM
- TGI [44]: > 100 µM
- TGI [64]: > 100 µM
- TGI [65]: > 100 µM
- TGI [46]: > 100 µM
- TGI [47]: > 100 µM
- TGI [48]: > 100 µM
- TGI [66]: > 100 µM
- TGI [49]: > 100 µM
- TGI [50]: > 100 µM
- TGI [51]: > 100 µM
- TGI [52]: > 100 µM
- TGI [67]: > 100 µM
- TGI [54]: > 100 µM
- TGI [55]: > 100 µM
- TGI [56]: > 100 µM
- TGI [57]: > 100 µM
- TGI [59]: > 100 µM

Reference: PubChem BioAssay (NCI)
